Measurements published in patent publication US4629567A, “Alpha-1-antiprotease purification” (SmithKline-RIT, priority 1986, dated 1986).

What was measured:
trypsin [1] = assay: standard trypsin inhibition assay (microtest with chromogenic substrate S2444); assay type: biochemical; details: fixed amount of trypsin, 20 min at 37° C.
Method: The activity of the four AAT proteins purified by the method of the invention was compared to that of a standard AAT preparation derived from serum in a standard trypsin inhibition assay. The assay measures the inhibitory capacity of α1 -antitrypsin toward trypsin. It consists of a microtest using the chromogenic substrate S2444 (L-pyroglutamylglycyl-L-arginine, p-nitroanilide hydrochloride, Kabi Diagnostica, Stockholm, Sweden). The polystyrene microtest plates were incubated for 1 hr with 1% bovine serum albumin and washed extensively with distilled water. α1 -antitrypsin at various concentrations was incubated with a fixed amount of trypsin for 20 min at 37° C. in a 200- 1 final reaction volume of 0.1 M Tris-HCl pH 8.2/0.15 M NaCl/0.01 M EDTA/0.5% polyethylene glycol, Mr 6000). Samples were cooled slowly at room temperature and then exposed to the chromogenic substrate (20 μl of aqueous solution of 0.003 M S2444). After 5 min at room temperature, the reaction was stopped with 50 μl of 50% acetic acid.
Absorbance was read at 405 nm in a micro-ELISA automatic reader (Dynatech AM120). Calibration curves were determined for both trypsin and α1 -antitrypsin. Samples to be assayed were diluted serially in reaction buffer.

trypsin [2] = assay: as above; assay type: biochemical; details: fixed amount of trypsin, 20 min at 37° C.; remark: listed apart in the source

Row | Substance | % inhibition of trypsin activity (trypsin [1]; AAT concentration 0.25 ug/ml) [%] | % inhibition of trypsin activity (trypsin [1]; AAT concentration 1 ug/ml) [%] | % inhibition of trypsin activity (trypsin [1]; AAT concentration 2 ug/ml) [%] | Optical density (A410) (trypsin [2]; AAT concentration 0.25 ug/ml) | Optical density (A410) (trypsin [2]; AAT concentration 1 ug/ml) | Optical density (A410) (trypsin [2]; AAT concentration 2 ug/ml) | % inhibition of trypsin activity (trypsin [1]; AAT concentration 0.50 ug/ml) [%] | % inhibition of trypsin activity (trypsin [1]; AAT concentration 2.50 ug/ml) [%] | % inhibition of trypsin activity (trypsin [1]; AAT concentration 3.50 ug/ml) [%] | % inhibition of trypsin activity (trypsin [1]; AAT concentration 4.50 ug/ml) [%] | Optical density (A410) (trypsin [2]; AAT concentration 0.50 ug/ml) | Optical density (A410) (trypsin [2]; AAT concentration 2.50 ug/ml) | Optical density (A410) (trypsin [2]; AAT concentration 3.50 ug/ml) | Optical density (A410) (trypsin [2]; AAT concentration 4.50 ug/ml) | % inhibition of trypsin activity (trypsin [1]; AAT concentration 1.50 ug/ml) [%] | Optical density (A410) (trypsin [2]; AAT concentration 1.50 ug/ml)
1 | 4: AAT from human plasma, purified by the method of the invention [Sample 4] | 17 | 46 | 93 | 0.74 | 0.48 | 0.06 | – | – | – | – | – | – | – | – | – | –
2 | standard: standard AAT preparation derived from serum | – | 33 | 66 | – | .63 | .32 | 11 | 74 | 82 | 90 | .78 | .24 | .17 | .1 | – | –
3 | 3: mature AAT (having N-met in place of the N-glu) expressed in yeast [Sample 3] | 7 | – | – | 0.95 | – | – | 17 | – | – | – | 0.84 | – | – | – | 47 | 0.54
